Assay results from patent US9624215B2, “Amine derivative or salt thereof” (TOYAMA CHEMICAL CO., LTD., priority 2012, dated 2017).

Tests used:
[1] = tested on: TNFα production in LPS-stimulated Raw264.7 cells; assay: TNFα production inhibition test; format: cell-based; details: Mus musculus, test compound 1 μmol/L, LPS 1 μg/mL, 16 hours, ELISA, read-out: Inhibition rate of TNFα production
Method: 7×10^4 mouse macrophage-derived cell line Raw264.7 cells were suspended in 100 μL of RPMI1640 medium containing 10% fetal bovine serum, plated in a 96-well plate and incubated overnight. The culture supernatant was removed and the test compound diluted in RPMI1640 medium containing 1% fetal bovine serum (final concentration: 1 μmol/L) was added. One hour after the addition, LPS (B4:0111) (Sigma-Aldrich, L2630) was added to a final concentration of 1 μg/mL. 16 hours after the stimulation, the culture supernatant was collected and the amount of TNFα produced in the culture supernatant was determined using ELISA kit (R&D Systems, MTA00B).
The inhibition rate was calculated from the following formula. Inhibition rate (%)=100−(amount of TNFα produced in the presence of test compound/amount of TNFα produced in the absence of test compound)×100

[2] = tested on: normal human neonatal foreskin epidermal keratinocytes (NHEK-F); assay: Cell proliferation inhibition test; format: cell-based; details: Keratinocyte, 72 h, NHEK-F cells, three days incubation, ATPlite or CellTiterGlo, read-out: IC50 (concentration of the compound at which the cell count is reduced by 50%)
Summary of the method: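 IC50 is the compound level halving cell count relative to untreated wells, with counts from ATP-based luminescence (ATPlite or CellTiterGlo). Readout followed 3 days of compound exposure of overnight-attached neonatal foreskin keratinocytes (2×10^3/well, Humedia-EG2 medium).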

SMILES	inhibition at 1 µM [1]	IC50 [2]
O=C(O)c1cc(Cl)ccc1Nc1ccc2c(ccn2CC2CC2)c1 [Example 96, 5-chloro-2-((1-(cyclopropylmethyl)-1H-indol-5-yl)amino)benzoic acid]	≥ 50%	0.01 to 0.1 µM
O=C(O)c1cc(Cl)ccc1Nc1ccc2c(ccn2-c2cccc(C(F)(F)F)c2)c1 [Example 333, 5-chloro-2-((1-(3-(trifluoromethyl)phenyl)-1H-indol-5-yl)amino)benzoic acid]	≥ 50%	≤ 0.01 µM
O=C(O)c1cc(C2CC2)ccc1Nc1ccc2c(ccn2-c2ccccc2)c1 [Example 59, 5-cyclopropyl-2-((1-phenyl-1H-indol-5-yl)amino)benzoic acid]	≥ 50%	≤ 0.01 µM
CN(C)c1ccc(Cn2ccc3cc(Nc4ccc(C5CC5)cc4C(=O)O)ccc32)cc1 [Example 198, 5-cyclopropyl-2-((1-(4-(dimethylamino)benzyl)-1H-indol-5-yl)amino)benzoic acid]	≥ 50%	≤ 0.01 µM
CC(C)n1ccc2cc(Nc3ccc(C4CC4)cc3C(=O)O)ccc21 [Example 112, 5-cyclopropyl-2-((1-isopropyl-1H-indol-5-yl)amino)benzoic acid]	≥ 50%	≤ 0.01 µM
O=C(O)c1cc(Cl)ccc1Nc1ccc2c(ccn2Cc2cccc(O)c2)c1 [Example 17, 5-chloro-2-((1-(3-hydroxybenzyl)-1H-indol-5-yl)amino)benzoic acid]	≥ 50%	≤ 0.01 µM
Cn1c(=O)n(Cc2ccccc2)c2ccc(Nc3ccc(Cl)cc3C(=O)O)cc21 [Example 65, 2-((1-benzyl-3-methyl-2-oxo-2,3-dihydro-1H-benzo[d]imidazol-5-yl)amino)-5-chlorobenzoic acid]	≥ 50%	0.1 to 1 µM
O=C(O)c1cc(Cl)ccc1Nc1ccc2c(ccn2Cc2cccc(OCC(F)(F)F)c2)c1 [Example 84, 5-chloro-2-((1-(3-(2,2,2-trifluoroethoxyl)benzyl)-1H-indol-5-yl)amino)benzoic acid]	≥ 50%	≤ 0.01 µM
O=C(O)c1cc(Cl)ccc1Nc1ccc2c(ccn2Cc2cccc(OC(F)(F)F)c2)c1 [Example 363, 5-chloro-2-((1-(3-(trifluoromethoxy)benzyl)-1H-indol-5-yl)amino)benzoic acid]	≥ 50%	≤ 0.01 µM
O=C(O)c1cc(Cl)ccc1Nc1ccc2c(ccn2-c2ccccc2)c1 [Example 269, 5-chloro-2-((1-phenyl-1H-indol-5-yl)amino)benzoic acid]	≥ 50%	≤ 0.01 µM
O=C(O)c1cc(Cl)cnc1Nc1ccc2c(ccn2Cc2cccc(OC(F)(F)F)c2)c1 [Example 361, 5-chloro-2-((1-(3-(trifluoromethoxy)benzyl)-1H-indol-5-yl)amino)nicotinic acid]	≥ 50%	0.01 to 0.1 µM
Cc1ccc(-n2ccc3cc(Nc4ccc(C5CC5)cc4C(=O)O)ccc32)nn1 [Example 102, 5-cyclopropyl-2-((1-(6-methylpyridazin-3-yl)-1H-indol-5-yl)amino)benzoic acid]	≥ 50%	0.01 to 0.1 µM
O=C(O)c1cc(Cl)ccc1Nc1ccc2c(ccn2Cc2cccc(OCCO)c2)c1 [Example 300, 5-chloro-2-((1-(3-(2-hydroxyethoxy)benzyl)-1H-indol-5-yl)amino)benzoic acid]	≥ 50%	0.01 to 0.1 µM
O=C(O)c1cc(Cl)cnc1Nc1ccc2c(cnn2Cc2ccccc2)c1 [Example 354, 2-((1-benzyl-1H-indazol-5-yl)amino)-5-chloronicotinic acid]	≥ 50%	0.01 to 0.1 µM
O=C(O)c1cc(C2CC2)ccc1Nc1cnc2c(ccn2Cc2ccccc2)c1 [Example 27, 2-((1-benzyl-1H-pyrrolo(2,3-b)pyridin-5-yl)amino)-5-cyclopropylbenzoic acid]	≥ 50%	≤ 0.01 µM
O=C(O)c1cc(Cl)cnc1Nc1ccc2c(ccn2Cc2cccc(OCC(F)(F)F)c2)c1 [Example 357, 5-chloro-2-((1-(3-(2,2,2-trifluoroethoxyl)benzyl)-1H-indol-5-yl)amino)nicotinic acid]	≥ 50%	0.01 to 0.1 µM
O=C(O)c1cc(Cl)ccc1Nc1ccc2c(ccn2Cc2cccc(OC(F)F)c2)c1 [Example 277, 5-chloro-2-((1-(3-(difluoromethoxy)benzyl)-1H-indol-5-yl)amino)benzoic acid]	≥ 50%	≤ 0.01 µM

SMILES	inhibition at 1 µM [1]	IC50 [2]
COCCOc1cccc(Cn2ccc3cc(Nc4ccc(Cl)cc4C(=O)O)ccc32)c1 [Example 298, 5-chloro-2-((1-(3-(2-methoxyethoxyl)benzyl)-1H-indol-5-yl)amino)benzoic acid]	≥ 50%	≤ 0.01 µM
O=C(O)c1cc(Cl)ccc1Nc1ccc2c(ccn2-c2ccccc2F)c1 [Example 335, 5-chloro-2-((1-(2-fluorophenyl)-1H-indol-5-yl)amino)benzoic acid]	≥ 50%	≤ 0.01 µM
O=C(O)c1cc(C2CC2)ccc1Nc1ccc2c(ccn2Cc2ccc(N3CCOCC3)cc2)c1 [Example 196, 5-cyclopropyl-2-((1-(4-morpholinobenzyl)-1H-indol-5-yl)amino)benzoic acid]	≥ 50%	0.01 to 0.1 µM
O=C(O)c1cc(Cl)ccc1Nc1ccc2c(c1)CCN2c1ccccc1 [Example 283, 5-chloro-2-((1-phenylindolin-5-yl)amino)benzoic acid]	≥ 50%	≤ 0.01 µM
O=C(O)c1cc(C2CC2)ccc1Nc1ccc2c(ccn2-c2cccnc2)c1 [Example 339, 5-cyclopropyl-2-((1-(pyridin-3-yl)-1H-indol-5-yl)amino)benzoic acid]	≥ 50%	≤ 0.01 µM
O=C(O)c1cc(Cl)ccc1Nc1ccc2c(ccn2Cc2cccc(N3CCOCC3)c2)c1 [Example 14, 5-chloro-2-((1-(3-morpholinobenzyl)-1H-indol-5-yl)amino)benzoic acid]	≥ 50%	≤ 0.01 µM
COc1ccc(-n2ccc3cc(Nc4ccc(C5CC5)cc4C(=O)O)ccc32)cc1 [Example 373, 5-cyclopropyl-2-((1-(4-methoxyphenyl)-1H-indol-5-yl)amino)benzoic acid]	≥ 50%	≤ 0.01 µM
O=C(O)c1cc(Cl)ccc1Nc1ccc2c(c1)ncc(=O)n2Cc1ccccc1 [Example 69, 2-((1-benzyl-2-oxo-1,2-dihydroquinoxalin-6-yl)amino)-5-chlorobenzoic acid]	≥ 50%	0.1 to 1 µM
O=C(O)c1cc(C2CC2)ccc1Nc1ccc2c(c1)n(CC1CC1)c(=O)n2-c1ccccc1 [Example 82, 5-cyclopropyl-2-((3-(cyclopropylmethyl)-2-oxo-1-phenyl-2,3-dihydro-1H-benzo[d]imidazol-5-yl)amino)benzoic acid]	≥ 50%	0.01 to 0.1 µM
O=C(O)c1cc(Cl)ccc1Nc1ccc2c(ccn2-c2ccc(F)cc2)c1 [Example 331, 5-chloro-2-((1-(4-fluorophenyl)-1H-indol-5-yl)amino)benzoic acid]	≥ 50%	≤ 0.01 µM
O=C(O)c1cc(C2CC2)ccc1Nc1ccc2c(ccn2-c2ccc(C(F)(F)F)cc2)c1 [Example 375, 5-cyclopropyl-2-((1-(4-(trifluoromethyl)phenyl)-1H-indol-5-yl)amino)benzoic acid]	≥ 50%	≤ 0.01 µM
O=C(O)c1cc(Cl)ccc1Nc1ccc2c(ccn2-c2ccccc2C(F)(F)F)c1 [Example 337, 5-chloro-2-((1-(2-(trifluoromethyl)phenyl)-1H-indol-5-yl)amino)benzoic acid]	≥ 50%	≤ 0.01 µM
O=C(O)c1cc(Cl)ccc1Nc1ccc2c(ccn2Cc2ccccc2)c1 [Example 2, 2-((1-benzyl-1H-indol-5-yl)amino)-5-chlorobenzoic acid]	≥ 50%	≤ 0.01 µM
O=C(O)c1cc(C2CC2)ccc1Nc1ccc2c(c1)CC(=O)N2Cc1ccccc1 [Example 107, 2-((1-benzyl-2-oxoindolin-5-yl)amino)-5-cyclopropylbenzoic acid]	≥ 50%	0.01 to 0.1 µM
O=C(O)c1cc(C2CC2)ccc1Nc1ccc2c(ccn2Cc2ccc(N3CCCCC3)cc2)c1 [Example 194, 5-cyclopropyl-2-((1-(4-(piperidin-1-yl)benzyl)-1H-indol-5-yl)amino)benzoic acid]	≥ 50%	≤ 0.01 µM
O=C(O)c1cc(C2CC2)ccc1Nc1ccc2c(ccn2CC2CC2)c1 [Example 104, 5-cyclopropyl-2-((1-(cyclopropylmethyl)-1H-indol-5-yl)amino)benzoic acid]	≥ 50%	≤ 0.01 µM
O=C(O)c1cc(C2CC2)ccc1Nc1ccc2c(ccn2C(=O)c2ccccc2)c1 [Example 202, 2-((1-benzoyl-1H-indol-5-yl)amino)-5-cyclopropylbenzoic acid]	≥ 50%	≤ 0.01 µM
